{
  "source": "patent US20040023984A1",
  "about": "“Compounds for the treatment of alzheimer's disease” (priority 1987, published 2004)",
  "key": {"[1]": {"settings": "3 mg/kg; cited from earlier work"}, "[2]": {"test_system": "respiration and heart activity", "settings": "relative to galanthamine; cited from earlier work"}, "cholinesterase": {"test_system": "cholinesterase", "settings": "relative to galanthamine; cited from earlier work"}, "acetylcholinesterase [3]": {"biological_target": "T1, acetylcholinesterase (Homo sapiens, UniProt P22303)", "T1 sequence (P22303 32-614, species assumed)": "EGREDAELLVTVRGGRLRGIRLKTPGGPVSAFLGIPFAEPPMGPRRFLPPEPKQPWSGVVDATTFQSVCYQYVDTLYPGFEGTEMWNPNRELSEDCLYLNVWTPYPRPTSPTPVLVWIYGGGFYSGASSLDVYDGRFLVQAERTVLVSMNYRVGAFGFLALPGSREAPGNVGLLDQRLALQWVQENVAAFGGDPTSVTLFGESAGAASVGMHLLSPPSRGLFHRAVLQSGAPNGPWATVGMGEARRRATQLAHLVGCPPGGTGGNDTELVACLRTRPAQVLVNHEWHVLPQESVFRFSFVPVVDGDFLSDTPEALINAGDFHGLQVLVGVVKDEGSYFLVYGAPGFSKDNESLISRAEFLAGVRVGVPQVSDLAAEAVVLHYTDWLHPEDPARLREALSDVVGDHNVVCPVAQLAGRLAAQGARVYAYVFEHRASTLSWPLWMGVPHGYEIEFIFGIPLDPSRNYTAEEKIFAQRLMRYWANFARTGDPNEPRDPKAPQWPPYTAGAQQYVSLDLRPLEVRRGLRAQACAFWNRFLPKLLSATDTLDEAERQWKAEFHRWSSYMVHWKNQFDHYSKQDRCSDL", "assay": "Inhibition of acetylcholinesterase, procedure of Ellman (acetylthiocholine substrate, photometric)", "type": "biochemical", "experimental": "The anticholinesterase activity of the compounds prepared in the above examples was assayed by an assay for inhibition of acetylcholinesterase following the procedure of G. Ellman, […], 7:88-95 (1961) Acetylthiocholine serves as substrate since it acts like acetylcholine. Acetylcholinesterase cleaves it to thiocholine and acetate which react with dithiobisnitrobenzoate to form a yellow color which is measured photometrically.\nThis assay was carried out at dilution of 10^−5 molar\nThe compounds were tested in the assay described after Example 5 but at different concentrations. The results obtained were as follows:\nFurther compounds were prepared by methods analogous to those described above and were tested in a cholinesterase assay as described above."}, "[4]": {"test_system": "scopolamine induced memory deficit", "assay": "Scopolamine dementia dark avoidance test (passive avoidance)", "type": "in vivo, male CFW mice", "settings": "for # > CO/n / % > CO / Mean Latency: Table 2, cut-off 41 seconds", "experimental": "Furnished data on the effects of these compound on cholinesterase activity were used to determine doses for testing. […] The two other compounds were tested at 1,3 and 10 mg/kg sc and did antagonize the scopolamine induced deficit.\nTraining and testing of passive avoidance were conducted in a two-compartment (light/dark) test cage. On the training day, mice were individually placed in the light half of the cage and after entering the dark compartment, were administered a 3 sec 0.4 mA footshock. They were then removed from the test chamber and returned to their home cages. Twenty-four hours later, the animals were again placed in the lighted half of the test cage and the latency to enter the dark compartment was measured.\nAll animals in each group of 15 naive male CFW mice were injected twice subcutaneously. Thirty minutes prior to training, animals were administered 3 mg/kg scopolamine HBr or its 0.9% NaCl vehicle. Five minutes prior to training, independent groups were administered one of three doses of the test compounds or the distilled water vehicle. One group in each experiment received vehicle twice, another group received scopolamine and the dH2O vehicle; the remaining groups received scopolamine and a test compound.\nA cutoff value (CO), defined as the second-longest latency in the scopolamine/vehicle treated group, was used to determine whether a compound was active. If 20% or more of the animals in a treatment group had latencies greater than the CO value, the compound was considered active at that dose.\nThe three compounds were tested in two separate experiments; the results are presented below in Tables 1 and 2. Doses considered active are marked with an asterisk (*)."}, "EEG—recorded activity": {"test_system": "EEG—recorded activity", "settings": "relative to galanthamine; cited from earlier work"}, "normal mice": {"test_system": "normal mice", "assay": "Passive avoidance shuttle box test using normal mice", "type": "in vivo", "experimental": "(§1) Galanthamine n-butyl carbamate was tested in the nucleus basalis model for galanthamine discussed in the Hartounian et al paper noted above. In the test, mice were given the drug three and ½ hours before two learning trials in a shuttle box. They are placed in the lighted compartment and receive an electric footshock when they cross into the preferred side, the dark. The next day, they are again placed in the lighted compartment and the time to enter the dark is noted. The latency to enter the dark compartment is the basis for this figure. […] Below 50 mg/kg no side effects were noted.\nIn a similar test using normal mice, the mice remained in the light (less preferred) side of the shuttle box for over six minutes at the best dose (0.1 mg/kg) as compared to a best dose result of about 90 seconds for the nucleas basalis-lesioned animals."}, "acetylcholinesterase [5]": {"biological_target": "T1, acetylcholinesterase", "assay": "Acetylcholinesterase Inhibition Assay (other cholinesterase activity tests, may be less reliable)", "type": "biochemical", "settings": "results may be less reliable"}, "mice": {"test_system": "mice", "assay": "Cholinergic side effects in mice at high doses", "type": "in vivo", "experimental": "as §1"}, "[6]": {"test_system": "nucleas basalis-lesioned animals", "assay": "Nucleus basalis model, passive avoidance in shuttle box", "type": "in vivo, mice", "text": "The following test provides a good animal model for Alzheimer's disease in humans: A selective lesion is placed in a subcortical nucleus (nucleus basalis of Meynert) with a resultant cortical cholinergic deficiency, similar in magnitude to that seen in early to moderate stage Alzheimer's disease. Numerous behavioral deficits, including the inability to learn and retain new information, characterizes this lesion. Drugs that can normalize these abnormalities would have a reasonable expectation of efficacy in Alzheimer's disease. Haroutunian, V, Kanof P, Davis, K L: Pharmacological alleviations of cholinergic-lesion-induced memory defects in rats. Life Sciences, 37:945-952 (1985).\nas §1"}},
  "data": [
    {"smiles": "COc1ccc2c3c1OC1CC(=O)C=C[C@@]31CCN(C)C2", "note": "(stereo partly drawn) [Narwedine, narwedine]", "values": [
      {"measurement": "anticurare activity", "setting": "[1]", "result": "weak"},
      {"measurement": "cholinergic effects on respiration and heart activity, lower than galanthamine", "setting": "[2]", "result": "50-80%"},
      {"measurement": "anti-cholinesterase activity as % of that of galanthamine", "setting": "cholinesterase", "result": "less than 1%"}
    ]},
    {"smiles": "COc1ccc2c3c1OC1CC(O)CC[C@@]31CCN(C)C2", "note": "(stereo partly drawn) [lycoramine]", "values": [
      {"measurement": "inhibition at 10 µM", "setting": "acetylcholinesterase [3]; 10^−5 M, further compounds, read-out: cholinesterase inhibition at 10^−5 M", "result": 30, "unit": "%"},
      {"measurement": "antagonism of scopolamine induced memory deficit", "setting": "[4]; 10 mg/kg sc", "result": "active"},
      {"measurement": "# > CO/n", "setting": "[4]; scopolamine + 1 mg/kg sc", "result": "1/15"},
      {"measurement": "% > CO", "setting": "[4]; scopolamine + 1 mg/kg sc", "result": 7, "unit": "%"},
      {"measurement": "Mean Latency", "setting": "[4]; scopolamine + 1 mg/kg sc", "result": 26, "unit": "s"},
      {"measurement": "# > CO/n", "setting": "[4]; scopolamine + 3 mg/kg sc", "result": "0/15"},
      {"measurement": "Mean Latency", "setting": "[4]; scopolamine + 3 mg/kg sc", "result": 19, "unit": "s"},
      {"measurement": "% > CO", "setting": "[4]; scopolamine + 3 mg/kg sc, * = dose considered active", "result": 0, "unit": "%"},
      {"measurement": "# > CO/n", "setting": "[4]; scopolamine + 10 mg/kg sc", "result": "4/15"},
      {"measurement": "Mean Latency", "setting": "[4]; scopolamine + 10 mg/kg sc", "result": 48, "unit": "s"},
      {"measurement": "% > CO", "setting": "[4]; scopolamine + 10 mg/kg sc, * = dose considered active", "result": "27* %"},
      {"measurement": "concentration required to stimulate EEG-recorded activity, times that required for galanthamine", "setting": "EEG—recorded activity", "result": "about five"}
    ]},
    {"smiles": "CCCCNC(=O)O[C@@H]1C=CC23CCN(C)Cc4ccc(OC)c(c42)O[C@@H]3C1", "note": "(stereo partly drawn) [galanthamine n-butyl carbamate]", "values": [
      {"measurement": "inhibition of acetylcholinesterase at concentration 10^−5", "setting": "acetylcholinesterase [3]; 10^−5 molar", "result": 75},
      {"measurement": "best dose in passive avoidance test", "setting": "normal mice", "result": 0.1, "unit": "mg/kg"},
      {"measurement": "time mice remained in the light side of the shuttle box", "setting": "normal mice; best dose (0.1 mg/kg)", "result": "over six"},
      {"measurement": "% Inhibition at 10^−6", "setting": "acetylcholinesterase [5]; 10^−6", "result": 37, "unit": "%"},
      {"measurement": "% Inhibition at 10^−7", "setting": "acetylcholinesterase [5]; 10^−7", "result": 9, "unit": "%"},
      {"measurement": "% Inhibition at −10^−5", "setting": "acetylcholinesterase [5]; −10^−5", "result": 44, "unit": "%"},
      {"measurement": "dose below which no side effects were noted", "setting": "mice; mice", "result": "Below 50 mg/kg"},
      {"measurement": "side effects and lethality", "setting": "mice; two mice given 100 mg/kg", "result": "showed cholinergic side effects but neither died"},
      {"measurement": "best dose result, latency to enter the dark compartment", "setting": "[6]; nucleas basalis-lesioned animals, best dose", "result": "about 90 seconds"},
      {"measurement": "passive avoidance result compared with galanthamine", "setting": "[6]; nucleus basalis model, mice", "result": "comparable with those obtained with galanthamine"},
      {"measurement": "best dose in passive avoidance test", "setting": "[6]; nucleus basalis model, mice, drug given three and ½ hours before learning trials", "result": 0.5, "unit": "mg/kg"}
    ]},
    {"smiles": "COc1ccc2c3c1O[C@H]1C[C@H](O)C=C[C@@]31CCN(C)C2", "note": "[epigalanthamine]", "values": [
      {"measurement": "anti-cholinesterase activity as % of that of galanthamine", "setting": "cholinesterase", "result": 10, "unit": "%"}
    ]}
  ]
}
